Values quoted from earlier work as cited in patent US20240207235A1, “NANOEMULSION FORMULATION FOR TREATING DISBETES MELLITUS (DM)” (KING FAISAL UNIVERSITY, priority 2022, published 2024).

For `CCc1ccc(CCOc2ccc(CC3SC(=O)NC3=O)cc2)nc1` (stereo not shown) [PGZ, Pioglitazone], the solubility is listed as “low solubility”.
